The numbers were not newly measured in patent US20240423898A1, “LONGEVITY EYE CREAM” (Wellbeam Consumer Health Intermediate, LLC, priority 2023, published 2024), which cites them from elsewhere.

Each structure is given as a SMILES string.

In one data set the test system is skin. The settings on record: topical application.
The test system of a further data set is under-eye dark circles. The settings on record: in vivo.

For the molecule `C=C[C@@](C)(/C=C/c1ccc(O)cc1)CCC=C(C)C` [bakuchiol], in the data set on skin, the “improvement in lines and wrinkles, pigmentation, elasticity, firmness, and overall reduction in photo-damage” value is listed as “significant improvement”; the “irritating effect on the skin” value is “no irritating effect on the skin”. As to `Cn1c(=O)c2c(ncn2C)n(C)c1=O` [caffeine], the under-eye dark circles result with under-eye dark circles is reported as “can reduce under-eye dark circles”.
